Assay results reported in patent US20110045101A1, “FUNGICIDAL SUBSTITUTED AZOLES” (E.I. Du Pont De Nemours and Company, priority 2009, published 2011).
Marks after values point to notes of the source that are not given here.

Legend:
Type in all cases: in vivo
Conditions in all cases: 100 = 100% disease control
[1] = test system: Alternaria solani; experiment: Test D: tomato early blight, sprayed the day before inoculation, visual disease rating
How it was run: (§1)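 Test rate was 200 ppm, sprayed to run-off and equal to 500 g/ha, or 40 ppm where marked. The compound was first taken up in acetone at 3% of final volume and suspended in acetone/purified water (50/50) containing 250 ppm Trem® 014.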

[2] = test system: Erysiphe graminis f. sp. tritici; experiment: Test J: wheat powdery mildew on wheat seedlings, sprayed the day before inoculation, visual disease rating
How it was run: as §1

[3] = test system: Septoria tritici; experiment: Test G: wheat leaf blotch on wheat seedlings, sprayed the day before inoculation, visual disease rating
How it was run: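 Compounds dissolved in acetone (3% of final volume), then suspended in 50/50 acetone/water with 250 ppm Trem® 014 and sprayed to run-off on seedlings at 200 ppm (≈500 g/ha) or 40 ppm where marked. Inoculation with spores followed next day; visual rating after 48 h saturated at 24° C plus 19 days at 20° C.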

[4] = test system: Puccinia recondita f. sp. tritici; experiment: Test I: wheat leaf rust on wheat seedlings, sprayed the day before inoculation, visual disease rating
How it was run: as §1

[5] = test system: Botrytis cinerea; experiment: Test C: tomato Botrytis on tomato seedlings, sprayed the day before inoculation, visual disease rating
How it was run: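 Each compound is first taken up in acetone at 3% of the final volume and then brought to the desired ppm in a 50:50 acetone–water mix with 250 ppm surfactant (polyhydric alcohol esters). Tomato seedlings receive the suspension to run-off, normally at 200 ppm, occasionally 40 ppm.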

[6] = test system: Septoria nodorum; experiment: Test F: wheat glume blotch on wheat seedlings, sprayed the day before inoculation, visual disease rating
How it was run: as §1

[7] = 200 ppm, 0 = no control relative to controls

SMILES	Test D disease control rating [1, 7] [%]	Test J disease control rating [2, 7] [%]	Test G disease control rating [3, 7] [%]	Test I disease control rating [4, 7] [%]	Test C disease control rating [5, 7] [%]	Test F disease control rating [6, 7] [%]	Test D disease control rating ([1]; 40 ppm (marked *))	Test J disease control rating ([2]; 40 ppm (marked *))	Test G disease control rating ([3]; 40 ppm (marked *))	Test I disease control rating ([4]; 40 ppm (marked *))	Test C disease control rating ([5]; 40 ppm (marked *))	Test F disease control rating ([6]; 40 ppm (marked *))
COc1ccc(F)c(-c2c(Cl)nc(Br)n2-c2ccc(Cl)cc2)c1F [compound 117]	100	100	97	99	96	99	–	–	–	–	–	–
Cc1nc(Cl)c(-c2c(F)cccc2F)n1Cc1ccccc1 [compound 118]	100	100	94	99	99	60	–	–	–	–	–	–
Cc1nc(Cl)c(-c2c(F)cc(O)cc2F)n1-c1ccc(Cl)cc1 [compound 119]	80	0	91	80	96	40	–	–	–	–	–	–
Cc1nc(Cl)c(-c2c(F)cccc2F)n1Cc1ccc(Cl)c(F)c1 [compound 120]	0	92	96	90	98	0	–	–	–	–	–	–
Fc1ccc(-n2cnc(Cl)c2-c2c(F)ccc(F)c2F)cc1 [compound 121]	100	97	85	89	99	0	–	–	–	–	–	–
COc1ccc(F)c(-c2c(Cl)nc(C)n2-c2ccc(Cl)cc2)c1F [compound 122]	100	100	96	100	98	100	–	–	–	–	–	–
Cc1ccc(-n2cnc(Cl)c2-c2c(F)ccc(F)c2F)cc1 [compound 123]	99	94	48	90	99	0	–	–	–	–	–	–
Fc1cc(-n2cnc(Cl)c2-c2c(F)ccc(F)c2F)ccc1Cl [compound 124]	97	98	90	95	98	0	–	–	–	–	–	–
Cc1nc(Cl)c(-c2c(F)cccc2F)n1Cc1cccc(Cl)c1 [compound 126]	99	99	96	99	97	69	–	–	–	–	–	–
Cc1nc(Cl)c(-c2c(F)ccc(Cl)c2F)n1-c1ccc(Cl)cc1 [compound 127]	100	100	95	100	99	98	–	–	–	–	–	–
Cc1nc(Cl)c(-c2c(F)cccc2F)n1Cc1ccc(Cl)cc1 [compound 128]	96	100	93	97	97	96	–	–	–	–	–	–
Fc1ccc(-n2c(Cl)nc(Cl)c2-c2c(F)ccc(F)c2F)cc1 [compound 129]	100	95	89	74	99	0	–	–	–	–	–	–
Cc1ccc(-n2c(Cl)nc(Cl)c2-c2c(F)ccc(F)c2F)cc1 [compound 130]	100	96	85	99	98	0	–	–	–	–	–	–
Fc1cc(F)c(-n2c(Br)nc(Cl)c2-c2ccc(Cl)cc2)c(F)c1 [compound 131]	–	–	–	–	–	–	99* %	48* %	85* %	0* %	90* %	0* %
COc1cc(F)c(-c2c(Cl)ncn2-c2ccc(Cl)cc2)c(Cl)c1 [compound 132]	98	97	92	74	94	0	–	–	–	–	–	–
COc1cc(Cl)cc(F)c1-c1c(Cl)ncn1-c1ccc(Cl)cc1 [compound 133]	0	0	0	0	0	0	–	–	–	–	–	–
Fc1ccc(-n2c(Br)nc(Cl)c2-c2c(F)ccc(F)c2F)cc1 [compound 134]	100	100	93	99	97	99	–	–	–	–	–	–
Fc1cc(-n2c(Cl)nc(Cl)c2-c2c(F)ccc(F)c2F)ccc1Cl [compound 135]	100	100	93	100	99	0	–	–	–	–	–	–
COc1cc(F)c(-c2c(Cl)ncn2-c2ccc(F)cc2)c(F)c1 [compound 136]	100	100	96	100	99	99	–	–	–	–	–	–
Fc1ccc(-n2cnc(Cl)c2-c2c(F)cc(F)cc2F)cc1 [compound 137]	100	97	98	55	94	0	–	–	–	–	–	–
COc1cc(F)c(-c2c(Cl)ncn2-c2ccc(C)cc2)c(F)c1 [compound 138]	100	100	99	100	98	92	–	–	–	–	–	–
Cc1ccc(-n2cnc(Cl)c2-c2c(F)cc(F)cc2F)cc1 [compound 139]	100	98	75	98	99	0	–	–	–	–	–	–
COc1cc(Cl)cc(F)c1-c1c(Cl)nc(Br)n1-c1ccc(Cl)cc1 [compound 140]	0	39	93	55	0	0	–	–	–	–	–	–
Cc1ccc(-n2c(Br)nc(Cl)c2-c2c(F)ccc(F)c2F)cc1 [compound 141]	100	100	91	99	99	0	–	–	–	–	–	–
COc1cc(F)c(-c2c(Cl)nc(Cl)n2-c2ccc(F)cc2)c(F)c1 [compound 142]	100	100	94	100	99	97	–	–	–	–	–	–
Fc1cc(-n2c(Br)nc(Cl)c2-c2c(F)ccc(F)c2F)ccc1Cl [compound 143]	100	100	100	100	99	100	–	–	–	–	–	–
COc1cc(F)c(-c2c(Cl)nc(Br)n2-c2ccc(F)cc2)c(F)c1 [compound 144]	100	100	100	100	100	100	–	–	–	–	–	–
Cc1nc(Cl)c(-c2c(F)ccc(F)c2F)n1-c1ccc(F)cc1 [compound 145]	100	100	100	100	99	100	–	–	–	–	–	–
COc1cc(F)c(-c2c(Cl)nc(Cl)n2-c2ccc(C)cc2)c(F)c1 [compound 146]	100	100	100	100	99	100	–	–	–	–	–	–
